Molecules are shown by their SMILES.

One test has as its target human KHK-A (Homo sapiens (Human), UniProt P50053). The test is described as follows: KHK Biochemical Assay (IC50), ADP-Glo, KHK-A. The settings on record: average of at least two separate assays. In outline: (§1)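 His-tagged enzyme expressed in BL21 (DE3), Ni-NTA purified. Compounds, serially diluted 1:3 in DMSO, pre-incubated 30 min with enzyme in 50 mM Hepes pH 7.4, 140 mM KCl, 5 mM MgCl2, 0.01% Triton-X, then ATP and fructose added; 4 h at room temperature. ADP formation read by ADP-Glo luminescence.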

The target of a further test is human KHK-C (Homo sapiens (Human), UniProt P50053). Description: KHK Biochemical Assay (IC50), ADP-Glo, KHK-C. The note with it: average of at least two separate assays. The procedure, abridged: as §1
Chain of human KHK-C (P50053 whole entry): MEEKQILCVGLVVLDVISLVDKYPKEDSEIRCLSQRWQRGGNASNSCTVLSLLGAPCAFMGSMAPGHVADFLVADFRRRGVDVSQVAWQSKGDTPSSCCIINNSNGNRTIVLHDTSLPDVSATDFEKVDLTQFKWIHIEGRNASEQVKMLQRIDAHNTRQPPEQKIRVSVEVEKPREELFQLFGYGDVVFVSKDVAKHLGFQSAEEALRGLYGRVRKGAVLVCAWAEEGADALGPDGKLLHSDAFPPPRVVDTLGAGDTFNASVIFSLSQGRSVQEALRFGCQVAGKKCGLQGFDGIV

Chain of human KHK-A (P50053 other isoform, or with tags, fused parts or gaps): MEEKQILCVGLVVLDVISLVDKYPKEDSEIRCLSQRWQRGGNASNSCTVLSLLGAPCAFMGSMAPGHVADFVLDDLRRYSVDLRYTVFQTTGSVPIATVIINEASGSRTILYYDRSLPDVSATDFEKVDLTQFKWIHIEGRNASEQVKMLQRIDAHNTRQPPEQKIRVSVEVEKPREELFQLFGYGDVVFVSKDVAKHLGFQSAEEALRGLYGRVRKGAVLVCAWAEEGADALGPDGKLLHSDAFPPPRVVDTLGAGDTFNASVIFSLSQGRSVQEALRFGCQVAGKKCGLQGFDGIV

For the compound `C[C@H]1[C@H](O)CN1c1nc(-c2ccc3c(c2)OC[C@@H]3NC2COC2)c2c(n1)C(F)(F)CC2` [Example 585, (2S,3R)-1-[7,7-difluoro-4-[(3R)-3-(oxetan-3-ylamino)-2,3-dihydrobenzofuran-6-yl]-5,6-dihydrocyclopenta[d]pyrimidin-2-yl]-2-methyl-azetidin-3-ol], the IC50 against human KHK-A turned out to be 41.6 nM; at human KHK-C, 21.2 nM.

For the compound `NC1(c2ccc(-c3nc(N4CC[C@@H]4C(F)(F)F)nc4c3CCC4(F)F)cc2)CCOC1` (stereo partly drawn) [Example 587, 3-[4-[7,7-difluoro-2-[(2R)-2-(trifluoromethyl)azetidin-1-yl]-5,6-dihydrocyclopenta[d]pyrimidin-4-yl]phenyl]tetrahydrofuran-3-amine], the IC50 was found to be 0.5 nM at human KHK-A and 0.4 nM against human KHK-C.

As to `NC1(c2ccc(-c3nc(N4CC[C@@H]4C(F)(F)F)nc4c3CCC4(F)F)cc2F)COC1` [Example 589, 3-[4-[7,7-difluoro-2-[(2R)-2-(trifluoromethyl)azetidin-1-yl]-5,6-dihydrocyclopenta[d]pyrimidin-4-yl]-2-fluoro-phenyl]oxetan-3-amine], the IC50 on human KHK-A was 2.7 nM; on human KHK-C, 1.4 nM.

Take `NC1(c2ccc(-c3nc(N4CCC4C(F)F)nc4c3CCC4(F)F)cc2)COC1` (stereo not shown) [Example 678, 3-[4-[2-[2-(difluoromethyl)azetidin-1-yl]-7,7-difluoro-5,6-dihydrocyclopenta[d]pyrimidin-4-yl]phenyl]oxetan-3-amine]: the IC50 was 4.6 nM against human KHK-A and 1.8 nM against human KHK-C.

Consider `NC1(c2ccc(-c3nc(N4CCC4C(F)(F)F)nc4c3CCC4(F)F)cc2)COC1` (stereo not shown) [Example 683, 3-[4-[7,7-difluoro-2-[2-(trifluoromethyl)azetidin-1-yl]-5,6-dihydrocyclopenta[d]pyrimidin-4-yl]phenyl]oxetan-3-amine], for which the IC50 against human KHK-A came to 2.4 nM; at human KHK-C it was 0.9 nM.

With `CCN1C(=O)NC2(COc3cc(-c4nc(N5C[C@@H](O)[C@@H]5C)nc5c4CCC5(F)F)ccc32)C1=O` (stereo partly drawn) [Example 689, 6-[7,7-difluoro-2-[(2S,3R)-3-hydroxy-2-methyl-azetidin-1-yl]-5,6-dihydrocyclopenta[d]pyrimidin-4-yl]-3′-ethyl-spiro[2H-benzofuran-3,5′-imidazolidine]-2′,4′-dione], the IC50 on human KHK-A turned out to be 14.2 nM; against human KHK-C, 0.2 nM.

Regarding `CC(C)N1C(=O)NC2(COc3cc(-c4nc(N5C[C@@H](O)[C@@H]5C)nc5c4CCC5(F)F)ccc32)C1=O` (stereo partly shown) [Example 690], the figures for the IC50 on human KHK-A and against human KHK-C were 45.4 nM and 0.3 nM, respectively.

`O=C1NC(=O)C2(COc3cc(-c4nc(N5CC[C@@H]5C(F)(F)F)nc5c4CCC5(F)F)ccc32)N1` (stereo partly drawn) [Example 703, 6-[7,7-difluoro-2-[(2R)-2-(trifluoromethyl)azetidin-1-yl]-5,6-dihydrocyclopenta[d]pyrimidin-4-yl]spiro[2H-benzofuran-3,5′-imidazolidine]-2′,4′-dione]: the IC50 at human KHK-A worked out at 1 nM; at human KHK-C, 0.4 nM.

On to `COc1cc(-c2nc(N3C[C@@H](O)[C@@H]3C)nc3c2CCC3(F)F)cc(S(C)(=N)=O)c1` (stereo partly drawn) [Example 719, (3-(7,7-difluoro-2-((2S,3R)-3-hydroxy-2-methylazetidin-1-yl)-6,7-dihydro-5H-cyclopenta[d]pyrimidin-4-yl)-5-methoxyphenyl)(imino)(methyl)-λ^6-sulfanone], for which the IC50 was 32.1 nM against human KHK-A and 21.7 nM against human KHK-C.

Turning to `Cc1cc(-c2nc(N3C[C@@H](O)[C@@H]3C)nc3c2CCC3(F)F)cc(S(C)(=N)=O)c1` (stereo partly drawn) [Example 720, (3-(7,7-difluoro-2-((2S,3R)-3-hydroxy-2-methylazetidin-1-yl)-6,7-dihydro-5H-cyclopenta[d]pyrimidin-4-yl)-5-methylphenyl)(imino)(methyl)-λ^6-sulfanone], the IC50 at human KHK-A amounted to 11.6 nM; against human KHK-C, 8.8 nM.

Consider `C[C@H]1[C@H](O)CN1c1nc(-c2ccc(C(F)F)c(S(C)(=N)=O)c2)c2c(n1)C(F)(F)CC2` (stereo partly drawn) [Example 721, (5-(7,7-difluoro-2-((2S,3R)-3-hydroxy-2-methylazetidin-1-yl)-6,7-dihydro-5H-cyclopenta[d]pyrimidin-4-yl)-2-(difluoromethyl)phenyl)(imino)(methyl)-λ^6-sulfanone], for which the IC50 against human KHK-A turned out to be 28.3 nM; at human KHK-C, 23.2 nM.

Regarding `NC1(c2ccc(-c3nc(N4CC[C@@H]4C(F)(F)F)nc4c3CCC4(F)F)cc2)CCS(=O)(=O)CC1` [Example 738, (R)-4-amino-4-(4-(7,7-difluoro-2-(2-(trifluoromethyl)azetidin-1-yl)-6,7-dihydro-5H-cyclopenta[d]pyrimidin-4-yl)phenyl)tetrahydro-2H-thiopyran 1,1-dioxide], the IC50 on human KHK-A and on human KHK-C was 2 nM each time.

`COC(=O)NC1COc2cc(-c3nc(N4C[C@@H](O)[C@@H]4C)nc4c3CCC4(F)F)cc(OC)c21` (stereo partly drawn) [Example 824, Methyl N-[6-[7,7-difluoro-2-[(2S,3R)-3-hydroxy-2-methyl-azetidin-1-yl]-5,6-dihydrocyclopenta[d]pyrimidin-4-yl]-4-methoxy-2,3-dihydrobenzofuran-3-yl]carbamate]: the IC50 on human KHK-A (ADP-Glo) is 91.6 nM; against human KHK-C (ADP-Glo), 8.6 nM.

`COc1cc(-c2nc(N3CC[C@@H]3C(F)(F)F)nc3c2CCC3(F)F)ccc1C1(N)COC1` [Example 837, (R)-3-(4-(7,7-difluoro-2-(2-(trifluoromethyl)azetidin-1-yl)-6,7-dihydro-5H-cyclopenta[d]pyrimidin-4-yl)-2-methoxyphenyl)oxetan-3-amine]: the figures for the IC50 against human KHK-A (ADP-Glo) and on human KHK-C (ADP-Glo) were 1 nM and 0.7 nM, respectively.

As for `C[C@H]1[C@H](O)CN1c1nc(-c2ccc(C3(N)CCOCC3)cc2)c2c(n1)C(F)(F)CC2` [Example 838, (2S,3R)-1-(4-(4-(4-aminotetrahydro-2H-pyran-4-yl)phenyl)-7,7-difluoro-6,7-dihydro-5H-cyclopenta[d]pyrimidin-2-yl)-2-methylazetidin-3-ol], the IC50 at human KHK-A (ADP-Glo) amounted to 4.8 nM; against human KHK-C (ADP-Glo), 4.1 nM.

On to `C[C@H]1CCN1c1nc2c(c(-c3ccc(OCc4ccccc4)c(S(C)(=N)=O)c3)n1)CCC2` (stereo partly drawn) [Example 839, (2-(benzyloxy)-5-(2-((S)-2-methylazetidin-1-yl)-6,7-dihydro-5H-cyclopenta[d]pyrimidin-4-yl)phenyl)(imino)(methyl)4^6-sulfanone], for which the IC50 at human KHK-A (ADP-Glo) was determined as 15.8 nM; against human KHK-C (ADP-Glo), 15.9 nM.

Turning to `COc1ccc(-c2nc(N3CC[C@@H]3C)nc3c2CCC3)cc1S(=N)(=O)C1CCOCC1` (stereo partly drawn) [Example 840, imino(2-methoxy-5-(2-((S)-2-methylazetidin-1-yl)-6,7-dihydro-5H-cyclopenta[d]pyrimidin-4-yl)phenyl)(tetrahydro-2H-pyran-4-yl)-λ^6-sulfanone], the IC50 against human KHK-A (ADP-Glo) was determined as 7.7 nM; at human KHK-C (ADP-Glo), 26.3 nM.

As for `C[C@H]1CCN1c1nc2c(c(-c3ccc(C(N)=O)c(Cc4ccccc4)c3)n1)CCC2` [Example 841, (S)-2-benzyl-4-(2-(2-methylazetidin-1-yl)-6,7-dihydro-5H-cyclopenta[d]pyrimidin-4-yl)benzamide], the values for the IC50 against human KHK-A (ADP-Glo) and at human KHK-C (ADP-Glo) were 28.1 nM and 40.5 nM, respectively.

Consider `C[C@H]1CCN1c1nc2c(c(-c3ccc(C(N)=O)c(SCc4ccccc4)c3)n1)CCC2` [Example 842, (S)-2-(benzylthio)-4-(2-(2-methylazetidin-1-yl)-6,7-dihydro-5H-cyclopenta[d]pyrimidin-4-yl)benzamide], for which the IC50 against human KHK-A (ADP-Glo) was found to be 304 nM; against human KHK-C (ADP-Glo), 576 nM.

As for `C[C@H]1CCN1c1nc2c(c(-c3ccc(C(N)=O)c(C(=O)c4ccccc4)c3)n1)CCC2` [Example 843, (S)-2-benzoyl-4-(2-(2-methylazetidin-1-yl)-6,7-dihydro-5H-cyclopenta[d]pyrimidin-4-yl)benzamide], the IC50 came to 130 nM against human KHK-A (ADP-Glo) and 80.8 nM against human KHK-C (ADP-Glo).

Regarding `COc1ccc(-c2nc(N3CC[C@@H]3C)nc3c2CCC3)cc1S(=N)(=O)CC1COCOC1` (stereo partly drawn) [Example 844, ((1,3-dioxan-5-yl)methyl)(imino)(2-methoxy-5-(2-((S)-2-methylazetidin-1-yl)-6,7-dihydro-5H-cyclopenta[d]pyrimidin-4-yl)phenyl)-λ^6-sulfanone], the IC50 amounted to 2.5 nM at human KHK-A (ADP-Glo) and 8.5 nM on human KHK-C (ADP-Glo).

For the compound `COc1ccc(-c2nc(N3CC[C@@H]3C)nc3c2CCC3)cc1S(=N)(=O)c1ccc(C#N)c(Cl)c1` (stereo partly drawn) [Example 845, 2-chloro-4-(2-methoxy-5-(2-((S)-2-methylazetidin-1-yl)-6,7-dihydro-5H-cyclopenta[d]pyrimidin-4-yl)phenylsulfonimidoyl)benzonitrile], the IC50 against human KHK-A (ADP-Glo) was 47 nM; at human KHK-C (ADP-Glo), 182 nM.

With `COc1ccc(-c2nc(N3CC[C@@H]3C)nc3c2CCC3)cc1S(=N)(=O)c1ccc(C#N)cc1C` (stereo partly drawn) [Example 846, 4-(2-methoxy-5-(2-((S)-2-methylazetidin-1-yl)-6,7-dihydro-5H-cyclopenta[d]pyrimidin-4-yl)phenylsulfonimidoyl)-3-methylbenzonitrile], the IC50 stood at 33.6 nM against human KHK-A (ADP-Glo) and 46.1 nM against human KHK-C (ADP-Glo).

As to `C[C@H]1CCN1c1nc2c(c(-c3cccc(S(=N)(=O)c4ccc(C#N)cc4C4CC4)c3)n1)CCC2` (stereo partly shown) [Example 847], the figures for the IC50 against human KHK-A (ADP-Glo) and on human KHK-C (ADP-Glo) were 200 nM and 118 nM, respectively.

As for `COc1cc(S(=N)(=O)c2cccc(-c3nc(N4CC[C@@H]4C)nc4c3CCC4)c2)ccc1C#N` (stereo partly drawn) [Example 848, 2-methoxy-4-(3-(2-((S)-2-methylazetidin-1-yl)-6,7-dihydro-5H-cyclopenta[d]pyrimidin-4-yl)phenylsulfonimidoyl)benzonitrile], the IC50 at human KHK-A (ADP-Glo) stood at 249 nM; against human KHK-C (ADP-Glo), 186 nM.

In the case of `COc1ccc(-c2nc(N3CC[C@@H]3C)nc3c2CCC3)cc1S(=N)(=O)c1ccc(C#N)cc1Cl` (stereo partly drawn) [Example 849, 3-chloro-4-(2-methoxy-5-(2-((S)-2-methylazetidin-1-yl)-6,7-dihydro-5H-cyclopenta[d]pyrimidin-4-yl)phenylsulfonimidoyl)benzonitrile], the half-inhibitory concentration (IC50) against human KHK-A (ADP-Glo) was found to be 16.3 nM; at human KHK-C (ADP-Glo), 25.4 nM.

For the origin of these results see US12410160B2 (Gilead Sciences, Inc., priority 2021, dated 2025).
